In patent publication US20180360917A1, “SINCALIDE FORMULATIONS AND METHODS OF USE” (Apicore LLC, priority 2017, published 2018):

Assays:
[1] = Stability of Sincalide in 35 mM phosphate buffer over pH 3.0-9.1 (recovery by RP-HPLC); assay type: physicochemical
Method: Experiments were conducted to determine the effect of pH on the chemical stability of Sincalide. Chemical instability, or degradation, may be caused by, for example, oxidation, reduction, de-amidation, hydrolysis, imide formation, racemization, isomerization, and/or β-elimination. To examine the effect of pH on Sincalide in phosphate buffer solution, solutions of Sincalide (˜1.7, μg/mL) were prepared in 35 mM phosphate buffer and pH-adjusted with either dilute HCl or NaOH for final pH values ranging from 3.0-9.1. Using reverse-phase HPLC (RP-HPLC) with gradient elution and UV detection at 215 nm, Sincalide stability in solution was assessed by measuring the recovery of Sincalide at 0, 6, and 24 hours after pH adjustment.
A 24-hour study on the stability of Sincalide in phosphate buffer over the pH range of 3.0-9.1 was conducted. By measure of the percentage recovery, Sincalide was stable in 35 mM phosphate buffer solution at pH values ranging from 5.0-9.1 over a 24-hour period. At pH values <5.0, Sincalide degradation was evident even at the initial time point.

[2] = Oxidation of Sincalide methionine residues by trace metals with and without EDTA; assay type: physicochemical
Source text: Excipient impurities and/or stopper extractables can introduce trace metals into pharmaceutical formulations. Embodiments of the Sincalide formulations disclosed herein contain stabilizerichelator to inhibit the oxidation of the two methionine residues present in Sincalide (Met 3 and Met 6). Preferred chelators include edetic acid (EDTA) and derivatives thereof, including salts. […] In particular, copper and manganese, in the absence of EDTA, have the greatest oxidative effect on the methionine residues of Sincalide.

[3] = test system: gallbladder; conditions: typical, patient pretreated before hepatobiliary imaging; cited from earlier work

With `CSCC[C@H](NC(=O)[C@H](Cc1ccc(OS(=O)(=O)O)cc1)NC(=O)[C@@H](N)CC(=O)O)C(=O)NCC(=O)N[C@@H](Cc1c[nH]c2ccccc12)C(=O)N[C@@H](CCSC)C(=O)N[C@@H](CC(=O)O)C(=O)N[C@@H](Cc1ccccc1)C(N)=O` [Sincalide, 1-De(5-oxo-L-glutamine-5-L-proline)-2-de-L-me-thioninecaerulein] the “pH values at which Sincalide was stable, by percentage recovery” value ([1]; 35 mM phosphate buffer solution, over a 24-hour period, RP-HPLC UV 215 nm) was 5.0-9.1, the “pH values at which Sincalide degradation was evident” value ([1]; 35 mM phosphate buffer, even at the initial time point) was < 5.0 and the “formation of Sincalide Met 3 and Met 6 mono sulfoxides” value ([2]; presence of EDTA) was “inhibitory effect”. For the same compound, the “amounts of the degradants Sincalide Met 3 and Met 6 mono sulfoxides” value ([2]; presence of certain metals, absence of EDTA, copper and manganese greatest oxidative effect) was “increase” and the “time to gallbladder contraction after injection” value [3] was ≤ 15 min.
